# Experimental data taken from patent publication US20240148821A1, “PHARMACEUTICAL USE OF CYCLIC PEPTIDE COMPOUND” (CHUGAI SEIYAKU KABUSHIKI KAISHA, priority 2021, published 2024).
# Numbered stars: 1 amine (or outer) side, 2 acyl side, 3 side chain; on linkers, the order of the positions; unused ones are H or OH. Bridge positions count the residues as written; N and C are the ends. Square brackets hold non-standard residues; d marks the D form. Peptide text beside a SMILES is read from it. * marks the point of attachment. hPhe(3-Cl-4-CF3) = N[C@@H](CCc1ccc(C(F)(F)F)c(Cl)c1)C(=O)O; hPhe(3-F,4-CF3) = N[C@@H](CCc1ccc(C(F)(F)F)c(F)c1)C(=O)O; hPhe(3-OMe-4-CF3) = COc1cc(CC[C@H](N)C(=O)O)ccc1C(F)(F)F; X49 = CN([C@@H](Cc1cccc(OC(F)(F)F)c1)C(=O)[*:2])[*:1]; NMePhe(4-CF3) = CN[C@@H](Cc1ccc(C(F)(F)F)cc1)C(=O)O; Thiomorpholino(1,1-dioxo) = O=S1(=O)CCN(*)CC1; 3Oxa8azabicyclo(3.2.1)octane = C1CC2COCC1N2*; NMe3Pal(6-Me) = CN[C@@H](Cc1ccc(C)nc1)C(=O)O; NMeAbu(4,4,4-F3) = CN[C@@H](CC(F)(F)F)C(=O)O; X72 = O=C([C@@H]1Cc2ccccc2N1[*:1])[*:2]; NMeGly(cPent) = CN[C@H](C(=O)O)C1CCCC1; Pip(4-oxo) = O=C1CCN[C@H](C(=O)O)C1; NMeCha = CN[C@@H](CC1CCCCC1)C(=O)O; Ala(cPr) = N[C@@H](CC1CC1)C(=O)O; NMeChg = CN[C@H](C(=O)O)C1CCCCC1; NMeI = CC[C@H](C)[C@H](NC)C(=O)O; NMeD = CN[C@@H](CC(=O)O)C(=O)O; NMeL = CN[C@@H](CC(C)C)C(=O)O; NMeV = CN[C@H](C(=O)O)C(C)C; d(β3hA) = C[C@@H](N)CC(=O)O; NMeS = CN[C@@H](CO)C(=O)O; Pip = O=C(O)[C@@H]1CCCCN1; Morpholide = C1CN(*)CCO1; NMeA = CN[C@@H](C)C(=O)O; NMeAib = CNC(C)(C)C(=O)O; Piperidide = C1CCN(*)CC1; Ac5c = NC1(C(=O)O)CCCC1; Aze = O=C(O)[C@@H]1CCN1; Cyclopropyl = C1CC1*; Sar = CNCC(=O)O
# Test system: Human pancreatic cancer cell line AsPC-1 (G12D mutation Kras)
# Assay: AsPC-1 cell growth inhibition (AsPC-1 CGI)
# Format: cell-based
# Conditions: read-out: AsPC-1 cell growth inhibition, 50% growth inhibitory concentration (IC50 value); 96 hours, CellTiter-Glo, values classified in ranges
# Procedure: Test compounds were serially dilated with dimethyl sulfoxide, and 200 nL was then dispensed to a U-bottom 96-well plate using Labcyte Echo. […] The cell suspension was dispensed to a. plate containing a test compound at 100 μL per well and incubated at 37° C. in a 5% carbon dioxide gas incubator. 96 hours later, 80 μL of CellTiter-Glo (Promega) was added to each well and fluorescence was measured.
row,SMILES,IC50 [nM]
1,"CC[C@H](C)[C@@H]1NC(=O)[C@@H]2CCCCN2C(=O)C[C@@H](C(=O)N2CCCCC2)N(C)C(=O)[C@H](C(C)C)N(C)C(=O)C2(CCCC2)NC(=O)[C@@H]2CCCN2C(=O)[C@H](CCc2ccc(C(F)(F)F)c(F)c2)NC(=O)CN(C)C(=O)[C@H](CC2CCCCC2)N(C)C(=O)CN(C)C(=O)CN(C)C1=O [Compound 670] ([Pip]I[Sar][Sar][NMeCha][Sar][hPhe(3-F,4-CF3)]P[Ac5c][NMeV][NMeD]-Piperidide; lactam N-11)",> 500
2,CC[C@H](C)[C@@H]1NC(=O)[C@H](C)N(C)C(=O)C[C@@H](C)NC(=O)[C@H](C(C)C)N(C)C(=O)C(C)(C)N(C)C(=O)[C@@H]2CCCN2C(=O)[C@H](CCc2ccc(C(F)(F)F)c(Cl)c2)NC(=O)CN(C)C(=O)[C@H](CC2CCCCC2)N(C)C(=O)CN(C)C(=O)CN(C)C1=O [Compound 93] (cyclo(I[Sar][Sar][NMeCha][Sar][hPhe(3-Cl-4-CF3)]P[NMeAib][NMeV][d(β3hA)][NMeA])),> 500
3,CC[C@H](C)[C@@H]1NC(=O)[C@H](CC(C)C)N(C)C(=O)C[C@@H](C(=O)N2C3CCC2COC3)NC(=O)[C@H]([C@@H](C)CC)N(C)C(=O)C2(CCCC2)NC(=O)[C@@H]2CCCN2C(=O)[C@H](CCc2ccc(C(F)(F)F)c(Cl)c2)NC(=O)CN(C)C(=O)[C@H](CC2CCCCC2)N(C)C(=O)CN(C)C(=O)CN(C)C1=O [Compound 1257] ([NMeL]I[Sar][Sar][NMeCha][Sar][hPhe(3-Cl-4-CF3)]P[Ac5c][NMeI]D-{3Oxa8azabicyclo(3.2.1)octane}; lactam N-11),> 500
4,"CC[C@H](C)[C@@H]1NC(=O)[C@H](CC(F)(F)F)N(C)C(=O)C[C@@H](C(=O)N2CCOCC2)N(C)C(=O)[C@H](C2CCCCC2)N(C)C(=O)C2(CCCC2)NC(=O)[C@@H]2CCCN2C(=O)[C@H](CCc2ccc(C(F)(F)F)c(Cl)c2)NC(=O)CN(C)C(=O)[C@H](Cc2ccc(C(F)(F)F)cc2)N(C)C(=O)CN(C)C(=O)CN(C)C1=O [Compound 981] ([NMeAbu(4,4,4-F3)]I[Sar][Sar][NMePhe(4-CF3)][Sar][hPhe(3-Cl-4-CF3)]P[Ac5c][NMeChg][NMeD]-Morpholide; lactam N-11)",≤ 20
5,CC[C@H](C)[C@@H]1NC(=O)[C@H](CC(C)C)N(C)C(=O)C[C@@H](C(=O)N2CCCCC2)N(C)C(=O)[C@H](COC2CC2)N(C)C(=O)C2(CCCC2)NC(=O)[C@@H]2CCCN2C(=O)[C@H](CCc2ccc(C(F)(F)F)c(Cl)c2)NC(=O)CN(C)C(=O)[C@H](CC2CCCCC2)N(C)C(=O)CN(C)C(=O)CN(C)C1=O [Compound 1857] ([NMeL]I[Sar][Sar][NMeCha][Sar][hPhe(3-Cl-4-CF3)]P[Ac5c][NMeS](Cyclopropyl)[NMeD]-Piperidide; lactam N-11),> 500
6,CC[C@H](C)[C@@H]1NC(=O)[C@H](CC(C)C)N(C)C(=O)C[C@@H](C(=O)N2CCCCC2)N(C)C(=O)[C@H](C2CCCCC2)N(C)C(=O)C2(CCCC2)NC(=O)[C@@H]2CC(=O)CCN2C(=O)[C@H](CCc2ccc(C(F)(F)F)c(Cl)c2)NC(=O)CN(C)C(=O)[C@H](CC2CCCCC2)N(C)C(=O)CN(C)C(=O)CN(C)C1=O [Compound 1089] ([NMeL]I[Sar][Sar][NMeCha][Sar][hPhe(3-Cl-4-CF3)][Pip(4-oxo)][Ac5c][NMeChg][NMeD]-Piperidide; lactam N-11),> 500
7,CC[C@H](C)[C@@H]1NC(=O)[C@H](CC(C)C)N(C)C(=O)C[C@@H](C)NC(=O)[C@H](C(C)C)N(C)C(=O)C2(CCCC2)NC(=O)[C@@H]2CCCN2C(=O)[C@H](CCc2ccc(C(F)(F)F)c(Cl)c2)NC(=O)CN(C)C(=O)[C@H](Cc2cccc(OC(F)(F)F)c2)N(C)C(=O)CN(C)C(=O)CN(C)C1=O [Compound 1573] (cyclo([Ac5c][NMeV][d(β3hA)][NMeL]I[Sar][Sar][X49][Sar][hPhe(3-Cl-4-CF3)]P)),> 500
8,CC[C@H](C)[C@@H]1NC(=O)[C@H](CC(C)C)N(C)C(=O)C[C@@H](C)NC(=O)[C@H](C(C)C)N(C)C(=O)C2(CCCC2)NC(=O)[C@@H]2CCCN2C(=O)[C@H](CCc2ccc(C(F)(F)F)c(Cl)c2)NC(=O)CN(C)C(=O)[C@H](CC2CCCCC2)N(C)C(=O)CN(C)C(=O)[C@@H]2CCCN2C1=O [Compound 185] (cyclo([Ac5c][NMeV][d(β3hA)][NMeL]IP[Sar][NMeCha][Sar][hPhe(3-Cl-4-CF3)]P)),> 500
9,CC(C)C[C@H]1C(=O)N[C@@H](CC2CC2)C(=O)N(C)CC(=O)N(C)CC(=O)N(C)[C@@H](CC2CCCCC2)C(=O)N(C)CC(=O)N[C@@H](CCc2ccc(C(F)(F)F)c(Cl)c2)C(=O)N2CCC[C@H]2C(=O)NC2(CCCC2)C(=O)N(C)[C@@H](C(C)C)C(=O)N(C)[C@H](C(=O)N2CCCCC2)CC(=O)N1C [Compound 421] ([NMeL][Ala(cPr)][Sar][Sar][NMeCha][Sar][hPhe(3-Cl-4-CF3)]P[Ac5c][NMeV][NMeD]-Piperidide; lactam N-11),> 500
10,CC[C@H](C)[C@@H]1NC(=O)[C@H](CC(C)C)N(C)C(=O)C[C@@H](C(=O)N2CCCCC2)N(C)C(=O)[C@H](C2CCCCC2)N(C)C(=O)C2(CCCC2)NC(=O)[C@@H]2Cc3ccccc3N2C(=O)[C@H](CCc2ccc(C(F)(F)F)c(Cl)c2)NC(=O)CN(C)C(=O)[C@H](CC2CCCCC2)N(C)C(=O)CN(C)C(=O)CN(C)C1=O [Compound 514] ([NMeL]I[Sar][Sar][NMeCha][Sar][hPhe(3-Cl-4-CF3)][X72][Ac5c][NMeChg][NMeD]-Piperidide; lactam N-11),> 500
11,CC[C@H](C)[C@@H]1NC(=O)[C@H](CC(C)C)N(C)C(=O)C[C@@H](C(=O)N2CCCCC2)N(C)C(=O)[C@H](C2CCCC2)N(C)C(=O)C2(CCCC2)NC(=O)[C@@H]2CCCN2C(=O)[C@H](CCc2ccc(C(F)(F)F)c(OC)c2)NC(=O)CN(C)C(=O)[C@H](CC2CCCCC2)N(C)C(=O)[C@@H]2CCN2C(=O)[C@H](C)N(C)C1=O [Compound 2080] ([NMeL]I[NMeA][Aze][NMeCha][Sar][hPhe(3-OMe-4-CF3)]P[Ac5c][NMeGly(cPent)][NMeD]-Piperidide; lactam N-11 (inferred); C-terminus assumed),≤ 20
12,"CC[C@H](C)[C@@H]1NC(=O)[C@H](CC(C)C)N(C)C(=O)C[C@@H](C(=O)N2CCS(=O)(=O)CC2)N(C)C(=O)[C@H](C2CCCCC2)N(C)C(=O)C2(CCCC2)NC(=O)[C@@H]2CCCN2C(=O)[C@H](CCc2ccc(C(F)(F)F)c(Cl)c2)NC(=O)CN(C)C(=O)[C@H](CC2CCCCC2)N(C)C(=O)CN(C)C(=O)CN(C)C1=O [Compound 1263] ([NMeL]I[Sar][Sar][NMeCha][Sar][hPhe(3-Cl-4-CF3)]P[Ac5c][NMeChg][NMeD]-{Thiomorpholino(1,1-dioxo)}; lactam N-11)",> 500
13,CC[C@H](C)[C@@H]1NC(=O)[C@H](CC(C)C)N(C)C(=O)C[C@@H](C(=O)N2CCCCC2)N(C)C(=O)[C@H](C2CCCCC2)N(C)C(=O)C2(CCCC2)NC(=O)[C@H](Cc2ccc(C)nc2)N(C)C(=O)[C@H](CCc2ccc(C(F)(F)F)c(Cl)c2)NC(=O)CN(C)C(=O)[C@H](CC2CCCCC2)N(C)C(=O)[C@@H]2CCN2C(=O)CN(C)C1=O [Compound 786] ([NMeL]I[Sar][Aze][NMeCha][Sar][hPhe(3-Cl-4-CF3)][NMe3Pal(6-Me)][Ac5c][NMeChg][NMeD]-Piperidide; lactam N-11),> 500
